Results on four molecules are retold here after patent US8937053B2, “Process for the preparation of prasugrel and several novel crystalline forms of prasugrel hydrochloride” (Sunshine Lake Pharma Co., Ltd., priority 2011, dated 2015).

This data set is described as follows: Solubility test (Chinese Pharmacopoeia 2010). To be noted: 0.1M HCl, 25±2° C., 300 mg ground powder sample, shaken 30 seconds at 5 minute intervals, 30 minutes total, dissolution judged by eye; for Solubility: hydrochloride. It counts as physicochemical. As to the method:
According to the solubility test described in “Chinese Pharmacopoeia 2010”, Topic and Requirement 15, the grinded sample in powder form was added to a certain amount of solvent at 25±2° C. […] The solid was deemed as dissolved when no solid was detected in the mixture by human eyes.

SMILES strings stand for the structures.

What is called solubility is the concentration that dissolves in the medium under given conditions. `CC(=O)Oc1cc2c(s1)CCN(C(C(=O)C1CC1)c1ccccc1F)C2.Cl` (stereo not shown) [Form B2, prasugrel hydrochloride]: for the setting “25 °C, simulated gastric fluid, thermodynamic from solid”, the solubility at 30 min was 40 mg/mL.

Broadly, the Solubility is how much of the substance goes into solution per volume. As for `CC(=O)Oc1cc2c(s1)CCN(C(C(=O)C1CC1)c1ccccc1F)C2.Cl` (stereo not shown) [Form H1, prasugrel hydrochloride], the Solubility is 50 mg/mL.

On to `CC(=O)Oc1cc2c(s1)CCN(C(C(=O)C1CC1)c1ccccc1F)C2.Cl` (stereo not shown) [Form H2, prasugrel hydrochloride], for which the Solubility worked out at 50 mg/mL.

The molecule `CC(=O)Oc1cc2c(s1)CCN(C(C(=O)C1CC1)c1ccccc1F)C2.Cl` (stereo not shown) [Form H3, prasugrel hydrochloride] gave a Solubility of 50 mg/mL.
